Laboratory results reported in patent publication US20220177508A1, “C10-Cyclic Substituted 13-Membered Macrolides and Uses Thereof” (Zikani Therapeutics, Inc., priority 2018, published 2022).
≈ marks a conversion by molar mass, not a printed value.

Legend:
Type in all cases: cell-based
K. pneumoniae MP-648 = assay: Broth dilution MIC determination (CLSI), K. pneumoniae MP-648; settings: Klebsiella pneumoniae, MP648; strain MP-648, broth dilution
A. baumannii MP-15 = assay: Broth dilution MIC determination (CLSI), A. baumannii MP-15; settings: Acinetobacter baumannii, MP15; strain MP-15, broth dilution; read-out: MIC A. baumanii MP-15
K. pneumoniae MP-546 = assay: Broth dilution MIC determination (CLSI), K. pneumoniae MP-546; settings: Klebsiella pneumoniae, MP546; strain MP-546, broth dilution
E. coli MP-4 = assay: Broth dilution MIC determination (CLSI), E. coli MP-4; settings: Escherichia coli, MP4; strain MP-4, broth dilution; read-out: MIC E. coli MP-4
S. aureus MP-12 = assay: Broth dilution MIC determination (CLSI), S. aureus MP-12; settings: Staphylococcus aureus, MP12; strain MP-12, broth dilution
P. aeruginosa MP-3 = assay: Broth dilution MIC determination (CLSI), P. aeruginosa MP-3; settings: Pseudomonas aeruginosa, MP3; strain MP-3, broth dilution

## CO[C@]1(C)C[C@@H](C)CN(C)[C@@H](C2CCN(C[C@H]3COC(C)(C)O3)CC2)COC(=O)C(C)(C)C(=O)[C@H](C)[C@H]1O[C@@H]1O[C@H](C)C[C@H](N(C)C)[C@H]1O [Compound 86, (3S,6R,8R,9R,10R)-3-(1-(((S)-2,2-dimethyl-1,3-dioxolan-4-yl)methyl)piperidin-4-yl)-9-(((2S,3R,4S,6R)-4-(dimethylamino)-3-hydroxy-6-methyltetrahydro-2H-pyran-2-yl)oxy)-8-methoxy-4,6,8,10,12,12-hexamethyl-1-oxa-4-azacyclotridecane-11,13-dione]
K. pneumoniae MP-648
  MIC: 4 to 32 µg/mL (≈ 5.73 to 45.8 µM)
A. baumannii MP-15
  MIC: > 32 µg/mL
K. pneumoniae MP-546
  MIC: < 4 µg/mL
E. coli MP-4
  MIC: < 4 µg/mL
S. aureus MP-12
  MIC: 4 to 32 µg/mL (≈ 5.73 to 45.8 µM)
P. aeruginosa MP-3
  MIC: > 32 µg/mL

## CO[C@]1(C)C[C@@H](C)CN(C)[C@](C)(C2CCN(C(C)C)CC2)COC(=O)C(C)(C)C(=O)[C@H](C)[C@H]1O[C@@H]1O[C@H](C)C[C@H](N(C)C)[C@H]1O [Compound 158, (3R,6R,8R,9R,10R)-9-(((2S,3R,4S,6R)-4-(dimethylamino)-3-hydroxy-6-methyltetrahydro-2H-pyran-2-yl)oxy)-3-(1-isopropylpiperidin-4-yl)-8-methoxy-3,4,6,8,10,12,12-heptamethyl-1-oxa-4-azacyclotridecane-11,13-dione]
K. pneumoniae MP-648
  MIC: < 4 µg/mL
A. baumannii MP-15
  MIC: > 32 µg/mL
K. pneumoniae MP-546
  MIC: < 4 µg/mL
E. coli MP-4
  MIC: < 4 µg/mL
S. aureus MP-12
  MIC: 4 to 32 µg/mL (≈ 6.25 to 50 µM)
P. aeruginosa MP-3
  MIC: > 32 µg/mL

## CO[C@]1(C)C[C@@H](C)CN(C)[C@@H](C2CCN(C(C)[C@H]3COC(C)(C)O3)CC2)COC(=O)C(C)(C)C(=O)[C@H](C)[C@H]1O[C@@H]1O[C@H](C)C[C@H](N(C)C)[C@H]1O (mixture of isomers) [Compound 172, (3S,6R,8R,9R,10R)-3-(1-(1-((S)-2,2-dimethyl-1,3-dioxolan-4-yl)ethyl)piperidin-4-yl)-9-(((2S,3R,4S,6R)-4-(dimethylamino)-3-hydroxy-6-methyltetrahydro-2H-pyran-2-yl)oxy)-8-methoxy-4,6,8,10,12,12-hexamethyl-1-oxa-4-azacyclotridecane-11,13-dione]
K. pneumoniae MP-648
  MIC: < 4 µg/mL
A. baumannii MP-15
  MIC: > 32 µg/mL
K. pneumoniae MP-546
  MIC: < 4 µg/mL
E. coli MP-4
  MIC: < 4 µg/mL
S. aureus MP-12
  MIC: 4 to 32 µg/mL (≈ 5.62 to 44.9 µM)
P. aeruginosa MP-3
  MIC: > 32 µg/mL

## CO[C@]1(C)C[C@@H](C)CN(C)[C@H](C2CCN(C(C)C)CC2)COC(=O)C(C)(C)C(=O)[C@H](C)[C@H]1O[C@@H]1O[C@H](C)C[C@H](N(C)C)[C@H]1O [Compound 151]
K. pneumoniae MP-648
  MIC: < 4 µg/mL
A. baumannii MP-15
  MIC: > 32 µg/mL
K. pneumoniae MP-546
  MIC: < 4 µg/mL
E. coli MP-4
  MIC: < 4 µg/mL
S. aureus MP-12
  MIC: > 32 µg/mL
P. aeruginosa MP-3
  MIC: > 32 µg/mL

## CO[C@]1(C)C[C@@H](C)CN(C)[C@H](C2CN(C(=O)[C@@H]3CCN(CC4CC4)C3)C2)COC(=O)C(C)(C)C(=O)[C@H](C)[C@H]1O[C@@H]1O[C@H](C)C[C@H](N(C)C)[C@H]1O [Compound 145, (3R,6R,8R,9R,10R)-3-(1-((R)-1-(cyclopropylmethyl)pyrrolidine-3-carbonyl)azetidin-3-yl)-9-(((2S,3R,4S,6R)-4-(dimethylamino)-3-hydroxy-6-methyltetrahydro-2H-pyran-2-yl)oxy)-8-methoxy-4,6,8,10,12,12-hexamethyl-1-oxa-4-azacyclotridecane-11,13-dione]
K. pneumoniae MP-648
  MIC: 4 to 32 µg/mL (≈ 5.66 to 45.3 µM)
A. baumannii MP-15
  MIC: > 32 µg/mL
K. pneumoniae MP-546
  MIC: 4 to 32 µg/mL (≈ 5.66 to 45.3 µM)
E. coli MP-4
  MIC: < 4 µg/mL
S. aureus MP-12
  MIC: > 32 µg/mL
P. aeruginosa MP-3
  MIC: > 32 µg/mL

## CO[C@]1(C)C[C@@H](C)CN(C)[C@H](C2CN(CC3CCCO3)C2)COC(=O)C(C)(C)C(=O)[C@H](C)[C@H]1O[C@@H]1O[C@H](C)C[C@H](N(C)C)[C@H]1O (stereo partly drawn) [Compound 164, (3R,6R,8R,9R,10R)-9-(((2S,3R,4S,6R)-4-(dimethylamino)-3-hydroxy-6-methyltetrahydro-2H-pyran-2-yl)oxy)-8-methoxy-4,6,8,10,12,12-hexamethyl-3-(1-((tetrahydrofuran-2-yl)methyl)azetidin-3-yl)-1-oxa-4-azacyclotridecane-11,13-dione]
K. pneumoniae MP-648
  MIC: 4 to 32 µg/mL (≈ 6.25 to 50 µM)
A. baumannii MP-15
  MIC: > 32 µg/mL
K. pneumoniae MP-546
  MIC: < 4 µg/mL
E. coli MP-4
  MIC: < 4 µg/mL
S. aureus MP-12
  MIC: 4 to 32 µg/mL (≈ 6.25 to 50 µM)
P. aeruginosa MP-3
  MIC: > 32 µg/mL

## CO[C@]1(C)C[C@@H](C)CN(C)[C@H](C2CN(C(=O)[C@H]3CCN(CC4CC4)C3)C2)COC(=O)C(C)(C)C(=O)[C@H](C)[C@H]1O[C@@H]1O[C@H](C)C[C@H](N(C)C)[C@H]1O [Compound 126, (3R,6R,8R,9R,10R)-3-(1-((S)-1-(cyclopropylmethyl)pyrrolidine-3-carbonyl)azetidin-3-yl)-9-(((2S,3R,4S,6R)-4-(dimethylamino)-3-hydroxy-6-methyltetrahydro-2H-pyran-2-yl)oxy)-8-methoxy-4,6,8,10,12,12-hexamethyl-1-oxa-4-azacyclotridecane-11,13-dione]
K. pneumoniae MP-648
  MIC: 4 to 32 µg/mL (≈ 5.66 to 45.3 µM)
A. baumannii MP-15
  MIC: > 32 µg/mL
K. pneumoniae MP-546
  MIC: 4 to 32 µg/mL (≈ 5.66 to 45.3 µM)
E. coli MP-4
  MIC: < 4 µg/mL
S. aureus MP-12
  MIC: 4 to 32 µg/mL (≈ 5.66 to 45.3 µM)
P. aeruginosa MP-3
  MIC: > 32 µg/mL
